The test system of one data set is MCF-7. The data set is described as follows: MTT cell proliferation assay. Format: cell-based, human. Conditions: for IC50: Homo sapiens, MCF7, MTT, 72 h treatment, n = 3, read-out: IC50 (µM ± SD) MCF-7; for Selectivity index MCF-7: IC50 MRC-5 / IC50 MCF-7. The protocol:
(§1) MCF-7 (human breast adenocarcinoma), A2780 (human ovarian cancer) and HCT116 (human colorectal carcinoma), and MRC-5 (normal foetal lung fibroblast) cell lines were bought from the ATCC and were cultured in flasks which were incubated at 37 °C in an atmosphere of 5% CO2, 95% air, and 100% relative humidity, to maintain continuous logarithmic growth. MCF-7, A2780, and HCT116 were maintained in RPMI-1640 media (100 U/mL penicillin, 100 µg/mL streptomycin, and 10% foetal bovine serum, Gibco, Carlsbad, CA). MRC-5 cells were maintained in EMEM (100 U/mL penicillin, 100 µg/mL streptomycin, and 10% foetal bovine serum, Gibco, Carlsbad, CA). Doxorubicin (5 μg/mL, for three months) added for RPMI-1640 media containing MCF7 cells was used to develop doxorubicin-resistant MCF7/ADR cells. All cancer and normal cell lines were cultured according to our previous report. Cells were used within 10–20 passages and were checked for mycoplasma every 6 months, by measuring the bioluminescence (Myco Alert sample detection kit; Lonza, Basel, Switzerland) using the multiplate reader (Synergy HT, BioTek, Winooski, VT).
(§2) The MTT assay was used to measure the cytotoxicity and growth inhibitory activities and cytotoxicity of the new compounds according to our previous report[13]^,[17]. Cells from flasks of 70–80% confluency were separately seeded in 96-well flat-bottom microculture plates (Nalgene-Nunc, Thermo Fisher Scientific, Roskilde, Denmark) at a density of 3 × 10^3 cells (MCF-7, A2780, and MRC-5), 1 × 10^4 cells (HCT116), to a volume of 180 μL/well of culture medium. A Neubauer haemocytometer was used for cell counting. Cells were incubated at 37 °C overnight to allow attachment to the wells. The final concentrations of each compound in wells were: 0–50 μM in 200 μL of media (DMSO 0.1%). Lapatinib (Cayman, Ann Arbor, MI) was used as a positive control at the same final concentrations. Medium only (20 μL) was added to each control well, and each concentration was tested in triplicates (n = 3). Following incubation for 72 h, 50 μL MTT was added into each well. Plates were incubated for 3 h, the supernatant was aspirated, and 100 μL of DMSO was added to each well. The optical density (OD) of the purple formazan is proportional to the number of viable cells. […] GraphPad Prism version 5.00 for Windows was used for analysis (La Jolla, CA). Cytotoxicity of the new compounds was calculated after treatment of cancer/normal cell lines for 72 h. The absorbance of the reduced MTT was determined using a microplate reader A570 nm.
(§3) The cytotoxic activity of the new compounds (15a–e, 16a–e, 20, and 21) was evaluated in vitro using MTT assay. The MTT assay depends on the reduction of the yellow tetrazole dye (MTT) to the purple formazan by the active mitochondrial dehydrogenase enzymes indicating the viability of the cells which can be measured as OD. The new compounds were evaluated against three non-resistant cancer cell lines: MCF-7, and A2780 cell lines were selected to compare cytotoxicity of the new compounds with the previously reported results of compounds 9a,b[13]. Cytotoxicity of the new compounds was also evaluated also against HCT116 cells which lacks COX-2 protein[33]^,[34].
A general note: Tetrazolium dyes change colour on reduction, which living cells bring about.

The next data set deals with HCT116. The data set is described as follows: MTT cell proliferation assay. It is filed as cell-based, human. The note with it: for IC50: Homo sapiens, HCT-116, MTT, 72 h treatment, n = 3, read-out: IC50 (µM ± SD) HCT116; for Selectivity index HCT116: IC50 MRC-5 / IC50 HCT116. The protocol: as §1, §2, §3
The next data set deals with A2780. The data set is described as follows: MTT cell proliferation assay. It is filed as cell-based, human. Conditions: for IC50: Homo sapiens, A2780, MTT, 72 h treatment, n = 3, read-out: IC50 (µM ± SD) A2780; for Selectivity index A2780: IC50 MRC-5 / IC50 A2780. The protocol: as §1, §2, §3
Data set [1] has as its system MCF-7, HCT116, and A2780 cancer cell lines. Put plainly: MTT assay, three cancer cell lines taken together (average, overall range). It is filed as cell-based, human. The note with it: for IC50: Homo sapiens.
Protocol: Cells from flasks of 70–80% confluency were separately seeded in 96-well flat-bottom microculture plates (Nalgene-Nunc, Thermo Fisher Scientific, Roskilde, Denmark) at a density of 3 × 10^3 cells (MCF-7, A2780, and MRC-5), 1 × 10^4 cells (HCT116), to a volume of 180 μL/well of culture medium. […] The final concentrations of each compound in wells were: 0–50 μM in 200 μL of media (DMSO 0.1%). Lapatinib (Cayman, Ann Arbor, MI) was used as a positive control at the same final concentrations. Medium only (20 μL) was added to each control well, and each concentration was tested in triplicates (n = 3). Following incubation for 72 h, 50 μL MTT was added into each well. Plates were incubated for 3 h, the supernatant was aspirated, and 100 μL of DMSO was added to each well. The optical density (OD) of the purple formazan is proportional to the number of viable cells. […] The absorbance of the reduced MTT was determined using a microplate reader A570 nm.
For the next data set, the system named is normal MRC-5 cells. Put plainly: MTT assay, normal cells (cytotoxic selectivity). Format: cell-based. Conditions: Homo sapiens, MRC5, 72 h treatment, n = 3, read-out: IC50 (µM ± SD) MRC-5. The protocol:
as §1, §2
Selectivity towards cancerous cells is one of the important issues which must be considered during the discovery and development of new anticancer agents. To assess the toxicity and selectivity of the new compounds (15a–e, 16a–e, 20, and 21), their growth inhibitory activities against normal human foetal lung fibroblast MRC-5 cells were evaluated using the MTT assay. […] The selectivity of the new compounds towards each of the three cancer cell lines was calculated by dividing their IC50 values against normal MRC-5 cells by their IC50 values against the corresponding cancer cell line (Table 3).

Setting [2] is: MCF-7, HCT116, A2780, read-out: Average of the three IC50 values against the three cancer cell lines.

Where two headings read alike, the source gives them in different places.

The term melting point denotes the temperature, or range, at which the solid turns liquid. In general, IC50 refers to the concentration that inhibits the measured activity by half. Regarding `COc1cc(C=Nc2c(C#N)c3n(c2C(=O)Nc2ccccc2)CCC3)cc(OC)c1OC` [15a, 7-Cyano-N-phenyl-6-((3,4,5-trimethoxybenzylidene)amino)-2,3-dihydro-1H-pyrrolizine-5-carboxamide], the melting point is 242 to 244 °C. Moreover, in the data set with MCF-7, the half-maximal inhibitory concentration (IC50) is 36.9 ± 4.4 µM and the “Selectivity index MCF-7” value is given as 0.05. In the data set on HCT116, the half-maximal inhibitory concentration (IC50) was determined as 0.353 ± 0.088 µM and the “Selectivity index HCT116” value was 4.92. Besides, in the data set on A2780, the IC50 stood at 25.8 ± 4.99 µM and the “Selectivity index A2780” value is 0.07. Further, the IC50 in data set [1] (setting [2]) was determined as 21 µM. Also, the IC50 with normal MRC-5 cells worked out at 1.74 ± 0.149 µM.

Molecule `COc1cc(C=Nc2c(C#N)c3n(c2C(=O)Nc2ccc(C)cc2)CCC3)cc(OC)c1OC` [15b, 7-Cyano-N-(p-tolyl)-6-((3,4,5-trimethoxybenzylidene)amino) -2,3-dihydro-1H-pyrrolizine-5-carboxamide] returned a melting point of 251 to 253 °C. In the data set with MCF-7, the 50% inhibitory concentration (IC50) worked out at 35.9 ± 4.44 µM and the “Selectivity index MCF-7” value was 0.09. In addition, in the data set on HCT116, the IC50 is 19.8 ± 7.76 µM and the “Selectivity index HCT116” value was found to be 0.17. In addition, in the data set with A2780, the IC50 worked out at 33.4 ± 3.73 µM and the “Selectivity index A2780” value was determined as 0.10. In addition, the half-maximal inhibitory concentration (IC50) in data set [1] (setting [2]) was 29.7 µM. In addition, the IC50 with normal MRC-5 cells was 3.33 ± 1 µM.

Take `COc1ccc(NC(=O)c2c(N=Cc3cc(OC)c(OC)c(OC)c3)c(C#N)c3n2CCC3)cc1` [15c, 7-Cyano-N-(4-methoxyphenyl)-6-((3,4,5-trimethoxybenzylidene)amino)-2,3-dihydro-1H-pyrrolizine-5-carboxamide]: the melting point is 263 to 265 °C. Further, in the data set on MCF-7, the IC50 turned out to be 0.616 ± 0.01 µM and the “Selectivity index MCF-7” value is 3.21. In the data set with HCT116, the IC50 amounted to 0.096 ± 0.015 µM and the “Selectivity index HCT116” value came out at 20.47. Besides, in the data set on A2780, the half-inhibitory concentration (IC50) came out at 0.041 ± 0.008 µM and the “Selectivity index A2780” value was 48.27. Besides, the IC50 in data set [1] (setting [2]) is 0.251 µM. Further, the IC50 with normal MRC-5 cells amounted to 1.98 ± 0.561 µM.

As for `COc1cc(C=Nc2c(C#N)c3n(c2C(=O)Nc2ccc(Cl)cc2)CCC3)cc(OC)c1OC` [15d, N-(4-Chlorophenyl)-7-cyano-6-((3,4,5-trimethoxybenzylidene)amino)-2,3-dihydro-1H-pyrrolizine-5-carboxamide], the melting point was in the range of 271 to 273 °C. In the data set on MCF-7, the half-maximal inhibitory concentration (IC50) turned out to be 21.8 ± 3.18 µM and the “Selectivity index MCF-7” value is 0.10. For the same molecule, in the data set on HCT116, the half-maximal inhibitory concentration (IC50) came out at 0.534 ± 0.204 µM and the “Selectivity index HCT116” value was determined as 3.88. In addition, in the data set with A2780, the concentration for half-maximal inhibition (IC50) stood at 0.07 ± 0.002 µM and the “Selectivity index A2780” value came out at 29.61. The 50% inhibitory concentration (IC50) in data set [1] (setting [2]) was determined as 7.45 µM. Further, the IC50 with normal MRC-5 cells worked out at 2.07 ± 0.054 µM.

The molecule `COc1cc(C=Nc2c(C#N)c3n(c2C(=O)Nc2ccc(Br)cc2)CCC3)cc(OC)c1OC` [15e, N-(4-Bromophenyl)-7-cyano-6-((3,4,5-trimethoxybenzylidene)amino)-2,3-dihydro-1H-pyrrolizine-5-carboxamide] displayed a melting point of 277 to 280 °C. In addition, in the data set on MCF-7, the concentration for half-maximal inhibition (IC50) is 0.187 ± 0.098 µM and the “Selectivity index MCF-7” value is reported as 91.24. For the same molecule, in the data set on HCT116, the IC50 was 0.144 ± 0.049 µM and the “Selectivity index HCT116” value turned out to be 118.61. In addition, in the data set on A2780, the half-inhibitory concentration (IC50) turned out to be 0.311 ± 0.041 µM and the “Selectivity index A2780” value is recorded as 54.92. The IC50 in data set [1] (setting [2]) was determined as 0.214 µM. Further, the half-maximal inhibitory concentration (IC50) in the data set on normal MRC-5 cells is 17.1 ± 0.552 µM.

In turn, `COc1ccc(NC(=O)c2c(NC(=O)c3cc(OC)c(OC)c(OC)c3)c(C#N)c3n2CCC3)cc1` [16c, 7-Cyano-N-(4-methoxyphenyl)-6-(3,4,5-trimethoxybenzamido)-2,3-dihydro-1H-pyrrolizine-5-carboxamide] yielded a melting point of 259 to 261 °C. Further, in the data set with MCF-7, the IC50 is 1.47 ± 0.452 µM and the “Selectivity index MCF-7” value is 0.45. Moreover, in the data set on HCT116, the IC50 came out at 0.032 ± 0.014 µM and the “Selectivity index HCT116” value stood at 20.78. Also, in the data set with A2780, the half-inhibitory concentration (IC50) came out at 0.144 ± 0.012 µM and the “Selectivity index A2780” value is reported as 4.62. Also, the IC50 in data set [1] (setting [2]) came out at 0.549 µM. Moreover, in the data set with normal MRC-5 cells, the IC50 was 0.665 ± 0.191 µM.

Turning to `COc1cc(C(=O)Nc2c(C#N)c3n(c2C(=O)Nc2ccc(Br)cc2)CCC3)cc(OC)c1OC` [16e, N-(4-Bromophenyl)-7-cyano-6-(3,4,5-trimethoxybenzamido) -2,3-dihydro-1H-pyrrolizine-5-carboxamide], the melting point is 286 to 288 °C. For the same molecule, in the data set on MCF-7, the half-maximal inhibitory concentration (IC50) is 0.361 ± 0.039 µM and the “Selectivity index MCF-7” value is recorded as 14.57. Further, in the data set with HCT116, the IC50 is 0.173 ± 0.039 µM and the “Selectivity index HCT116” value amounted to 30.40. For the same molecule, in the data set on A2780, the IC50 came out at 0.914 ± 0.092 µM and the “Selectivity index A2780” value came to 5.75. Also, in data set [1] (setting [2]), the half-maximal inhibitory concentration (IC50) was 0.483 µM. Also, in the data set on normal MRC-5 cells, the 50% inhibitory concentration (IC50) was found to be 5.26 ± 1.4 µM.

Consider `CS(=O)(=O)CCNCc1ccc(-c2ccc3ncnc(Nc4ccc(OCc5cccc(F)c5)c(Cl)c4)c3c2)o1` [Lapatinib, reference compound], for which the IC50 with MCF-7 was 6.69 ± 1.09 µM; in the data set on HCT116 it was 10 ± 1.13 µM; in the data set with A2780, 9.72 ± 0.845 µM; in data set [1] (setting [2]), 8.83 µM; in data set [1] (MTT, 72 h, range over MCF-7, HCT116, A2780, read-out: IC50 against the three cancer cell lines) it was 6.69 to 10 µM; in the data set on normal MRC-5 cells, 13.7 ± 2.9 µM. The “Selectivity index MCF-7” value with MCF-7 is recorded as 2.04. Further, the “Selectivity index HCT116” value with HCT116 was 1.36. The “Selectivity index A2780” value in the data set on A2780 turned out to be 1.40.

In turn, `COc1cc(C=Nc2c(C#N)c3n(c2C(=O)Nc2ccccc2)CCCC3)cc(OC)c1OC` [compound 20, 1-Cyano-N-phenyl-2-((3,4,5-trimethoxybenzylidene)amino)-5,6,7,8-tetrahydroindolizine-3-carboxamide] registered a melting point of 247 to 249 °C. Moreover, in the data set with MCF-7, the 50% inhibitory concentration (IC50) is 5.72 ± 0.185 µM and the “Selectivity index MCF-7” value is recorded as 0.27. Also, in the data set with HCT116, the half-maximal inhibitory concentration (IC50) is 0.247 ± 0.069 µM and the “Selectivity index HCT116” value worked out at 6.14. Moreover, in the data set with A2780, the IC50 amounted to 0.938 ± 0.116 µM and the “Selectivity index A2780” value is on record as 1.62. Besides, in data set [1] (setting [2]), the IC50 is 2.3 µM. Besides, the “fold increase in cytotoxicity against the three cancer cell lines” value in data set [1] (relative to compound 15a (ring expansion)) is given as 1.4–27.5 fold. Further, the IC50 in the data set on normal MRC-5 cells turned out to be 1.52 ± 0.103 µM.

`COc1cc(C(=O)Nc2c(C#N)c3n(c2C(=O)Nc2ccccc2)CCCC3)cc(OC)c1OC` [compound 21, 1-Cyano-N-phenyl-2-(3,4,5-trimethoxybenzamido)-5,6,7,8-tetrahydroindolizine-3-carboxamide]: the IC50 was found to be 0.6 ± 0.054 µM in the data set with MCF-7; 0.176 ± 0.017 µM with HCT116; 0.598 ± 0.039 µM with A2780; 0.458 µM in data set [1] (setting [2]); 0.584 ± 0.094 µM with normal MRC-5 cells.
